The supplement of paper PMC11451515

System: P12-Ichikawa
Experiment: cell viability relative to DMSO control; higher = less cytotoxic
Conditions: 48 h
Procedure, shortened: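 NOMO1, SEM and P12-Ichikawa leukemia cells spent at least four passages adapting to each medium before use. They were seeded at 500 cells/well (NOMO1, SEM) or 1000 cells/well (P12-Ichikawa) in 5 μl in 1536-well plates and pin-dosed with library compounds in DMSO at 11 threefold steps from 47 μM down to 0.79 nM. After 48 h at 37°C, CellTiter-Glo One luminescence was read. Viability is reported as a percentage of the DMSO wells on each plate, with cell-free wells as background.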

[1] = HPLM + 10% dialyzed FBS, 0.000781 µM
[2] = HPLM + 10% dialyzed FBS, 0.00234 µM
[3] = HPLM + 10% dialyzed FBS, 0.00702 µM
[4] = HPLM + 10% dialyzed FBS, 0.0211 µM
[5] = HPLM + 10% dialyzed FBS, 0.0632 µM
[6] = HPLM + 10% dialyzed FBS, 0.19 µM
[7] = HPLM + 10% dialyzed FBS, 0.569 µM
[8] = HPLM + 10% dialyzed FBS, 1.71 µM
[9] = HPLM + 10% dialyzed FBS, 5.12 µM
[10] = HPLM + 10% dialyzed FBS, 15.4 µM
[11] = HPLM + 10% dialyzed FBS, 46.1 µM
[12] = RPMI 5 mM glucose + 10% FBS, 0.000781 µM
[13] = RPMI 5 mM glucose + 10% FBS, 0.00234 µM
[14] = RPMI 5 mM glucose + 10% FBS, 0.00702 µM
[15] = RPMI 5 mM glucose + 10% FBS, 0.0211 µM
[16] = RPMI 5 mM glucose + 10% FBS, 0.0632 µM
[17] = RPMI 5 mM glucose + 10% FBS, 0.19 µM
[18] = RPMI 5 mM glucose + 10% FBS, 0.569 µM
[19] = RPMI 5 mM glucose + 10% FBS, 1.71 µM
[20] = RPMI 5 mM glucose + 10% FBS, 5.12 µM
[21] = RPMI 5 mM glucose + 10% FBS, 15.4 µM
[22] = RPMI 5 mM glucose + 10% FBS, 46.1 µM
[23] = RPMI 5 mM glucose + 10% dialyzed FBS, 0.000781 µM
[24] = RPMI 5 mM glucose + 10% dialyzed FBS, 0.00234 µM
[25] = RPMI 5 mM glucose + 10% dialyzed FBS, 0.00702 µM
[26] = RPMI 5 mM glucose + 10% dialyzed FBS, 0.0211 µM
[27] = RPMI 5 mM glucose + 10% dialyzed FBS, 0.0632 µM
[28] = RPMI 5 mM glucose + 10% dialyzed FBS, 0.19 µM
[29] = RPMI 5 mM glucose + 10% dialyzed FBS, 0.569 µM
[30] = RPMI 5 mM glucose + 10% dialyzed FBS, 1.71 µM
[31] = RPMI 5 mM glucose + 10% dialyzed FBS, 5.12 µM
[32] = RPMI 5 mM glucose + 10% dialyzed FBS, 15.4 µM
[33] = RPMI 5 mM glucose + 10% dialyzed FBS, 46.1 µM

CCN1C[C@H](C)[N]2C(=C(O)C3=C2\C(=N/N(CC4=CC=C(F)C(=C4)Cl)C3=O)C(=O)NC)C1=O
cell viability [1]: 111% | cell viability [2]: 116% | cell viability [3]: 126% | cell viability [4]: 102% | cell viability [5]: 124% | cell viability [6]: 121% | cell viability [7]: 111% | cell viability [8]: 97.4% | cell viability [9]: 103% | cell viability [10]: 107% | cell viability [11]: 112% | cell viability [12]: 103% | cell viability [13]: 115% | cell viability [14]: 115% | cell viability [15]: 110% | cell viability [16]: 113% | cell viability [17]: 114% | cell viability [18]: 111% | cell viability [19]: 101% | cell viability [20]: 101% | cell viability [21]: 105% | cell viability [22]: 94.7% | cell viability [23]: 102% | cell viability [24]: 105% | cell viability [25]: 108% | cell viability [26]: 116% | cell viability [27]: 105% | cell viability [28]: 101% | cell viability [29]: 117% | cell viability [30]: 108% | cell viability [31]: 89.7% | cell viability [32]: 92.4% | cell viability [33]: 92.5%

C[C@@H]1O[C@@H](O[C@H]2C[C@@H](O)[C@]3(CO)[C@H]4[C@H](O)C[C@]5(C)[C@@H](C6=CC(=O)OC6)CC[C@]5(O)[C@@H]4CC[C@]3(O)C2)[C@H](O)[C@H](O)[C@H]1O
cell viability [1]: 98.5% | cell viability [2]: 96.7% | cell viability [3]: 97.5% | cell viability [4]: 85.2% | cell viability [5]: 32.9% | cell viability [6]: 11.5% | cell viability [7]: 10.7% | cell viability [8]: 12.3% | cell viability [9]: 12.7% | cell viability [10]: 12.9% | cell viability [11]: 9.88% | cell viability [12]: 92.2% | cell viability [13]: 105% | cell viability [14]: 102% | cell viability [15]: 94.7% | cell viability [16]: 80% | cell viability [17]: 33.6% | cell viability [18]: 9.32% | cell viability [19]: 8.91% | cell viability [20]: 6.97% | cell viability [21]: 6.93% | cell viability [22]: 5.78% | cell viability [23]: 98.8% | cell viability [24]: 101% | cell viability [25]: 98.7% | cell viability [26]: 88.7% | cell viability [27]: 56.4% | cell viability [28]: 17.6% | cell viability [29]: 9.86% | cell viability [30]: 8.22% | cell viability [31]: 6.53% | cell viability [32]: 5.46% | cell viability [33]: 4.89%

CCN(CC)CCOc1ccc(Cc2ccccc2)cc1
cell viability [1]: 103% | cell viability [2]: 104% | cell viability [3]: 102% | cell viability [4]: 101% | cell viability [5]: 98.9% | cell viability [6]: 103% | cell viability [7]: 105% | cell viability [8]: 95.4% | cell viability [9]: 85.2% | cell viability [10]: 29.8% | cell viability [11]: 22.8% | cell viability [12]: 101% | cell viability [13]: 95.9% | cell viability [14]: 95.1% | cell viability [15]: 95.9% | cell viability [16]: 99.4% | cell viability [17]: 98.5% | cell viability [18]: 102% | cell viability [19]: 93% | cell viability [20]: 85.7% | cell viability [21]: 77.6% | cell viability [22]: 79.3% | cell viability [23]: 87.1% | cell viability [24]: 96% | cell viability [25]: 86.5% | cell viability [26]: 97.8% | cell viability [27]: 93.4% | cell viability [28]: 89.8% | cell viability [29]: 99.5% | cell viability [30]: 93.1% | cell viability [31]: 92% | cell viability [32]: 52% | cell viability [33]: 34.4%

Cc1nn(C)c(COc2ccc(N3CCN([S+](=O)([O-])N(C)C)CC3)cc2)c1-c1cccc2c(CCCOc3cccc4ccccc34)c(C(=O)O)n(CCN3CCOCC3)c12
cell viability [1]: 92.3% | cell viability [2]: 99.2% | cell viability [3]: 97.4% | cell viability [4]: 102% | cell viability [5]: 103% | cell viability [6]: 106% | cell viability [7]: 107% | cell viability [8]: 110% | cell viability [9]: 29.9% | cell viability [10]: 29.2% | cell viability [11]: 28% | cell viability [12]: 89.3% | cell viability [13]: 107% | cell viability [14]: 101% | cell viability [15]: 97.7% | cell viability [16]: 105% | cell viability [17]: 107% | cell viability [18]: 109% | cell viability [19]: 113% | cell viability [20]: 104% | cell viability [21]: 109% | cell viability [22]: 46.6% | cell viability [23]: 87.5% | cell viability [24]: 107% | cell viability [25]: 104% | cell viability [26]: 106% | cell viability [27]: 112% | cell viability [28]: 115% | cell viability [29]: 120% | cell viability [30]: 114% | cell viability [31]: 96.1% | cell viability [32]: 97.6% | cell viability [33]: 36.7%

N#CC(c1ccnc(NCCc2cccnc2)n1)c1nc2ccccc2s1 (stereo not drawn)
cell viability [1]: 115% | cell viability [2]: 128% | cell viability [3]: 120% | cell viability [4]: 127% | cell viability [5]: 127% | cell viability [6]: 134% | cell viability [7]: 131% | cell viability [8]: 121% | cell viability [9]: 141% | cell viability [10]: 141% | cell viability [11]: 118% | cell viability [23]: 122% | cell viability [24]: 136% | cell viability [25]: 122% | cell viability [26]: 145% | cell viability [27]: 142% | cell viability [28]: 152% | cell viability [29]: 151% | cell viability [30]: 148% | cell viability [31]: 140% | cell viability [32]: 133% | cell viability [33]: 120%

CCOc1cc2ncc(C#N)c(Nc3ccc(OCc4ccccn4)c(Cl)c3)c2cc1NC(=O)/C=C/CN(C)C
cell viability [1]: 116% | cell viability [2]: 124% | cell viability [3]: 122% | cell viability [4]: 115% | cell viability [5]: 117% | cell viability [6]: 115% | cell viability [7]: 62.5% | cell viability [8]: 6.67% | cell viability [9]: 4.65% | cell viability [10]: 4.41% | cell viability [11]: 3.56% | cell viability [12]: 111% | cell viability [13]: 125% | cell viability [14]: 120% | cell viability [15]: 118% | cell viability [16]: 120% | cell viability [17]: 121% | cell viability [18]: 121% | cell viability [19]: 11.3% | cell viability [20]: 6.84% | cell viability [21]: 5.28% | cell viability [22]: 5.4% | cell viability [23]: 119% | cell viability [24]: 130% | cell viability [25]: 121% | cell viability [26]: 122% | cell viability [27]: 119% | cell viability [28]: 118% | cell viability [29]: 122% | cell viability [30]: 13.5% | cell viability [31]: 7.04% | cell viability [32]: 5.08% | cell viability [33]: 4.99%

C[C@H]1C[C@H]2[C@@H]3CC[C@](O)(C(=O)CO)[C@@]3(C)C[C@H](O)[C@@H]2[C@@]\4(C)/C=C\C(=O)\C=C14
cell viability [1]: 96.9% | cell viability [2]: 97.4% | cell viability [3]: 96.9% | cell viability [4]: 91.7% | cell viability [5]: 98.7% | cell viability [6]: 88.1% | cell viability [7]: 64.1% | cell viability [8]: 64.9% | cell viability [9]: 57.3% | cell viability [10]: 57.6% | cell viability [11]: 56.9% | cell viability [12]: 91.2% | cell viability [13]: 96.3% | cell viability [14]: 95.4% | cell viability [15]: 96.8% | cell viability [16]: 78.5% | cell viability [17]: 80% | cell viability [18]: 55.2% | cell viability [19]: 50.4% | cell viability [20]: 47.6% | cell viability [21]: 48.2% | cell viability [22]: 45% | cell viability [23]: 85.3% | cell viability [24]: 88.2% | cell viability [25]: 84.1% | cell viability [26]: 93.5% | cell viability [27]: 88.2% | cell viability [28]: 74.2% | cell viability [29]: 53.3% | cell viability [30]: 40.6% | cell viability [31]: 40.6% | cell viability [32]: 38.6% | cell viability [33]: 34.9%

C/C(=N\NC(=S)N1CCC1)c1ccccn1
cell viability [1]: 105% | cell viability [2]: 92.4% | cell viability [3]: 47.6% | cell viability [4]: 29.3% | cell viability [5]: 12% | cell viability [6]: 8.28% | cell viability [7]: 5.61% | cell viability [8]: 10.9% | cell viability [9]: 8.16% | cell viability [10]: 1.94% | cell viability [11]: 20.3% | cell viability [12]: 110% | cell viability [13]: 96.3% | cell viability [14]: 57.6% | cell viability [15]: 22.7% | cell viability [16]: 10.4% | cell viability [17]: 8.95% | cell viability [18]: 8.33% | cell viability [19]: 6.64% | cell viability [20]: 5.66% | cell viability [21]: -0.453% | cell viability [22]: 9.21% | cell viability [23]: 117% | cell viability [24]: 107% | cell viability [25]: 64.9% | cell viability [26]: 29.8% | cell viability [27]: 12.9% | cell viability [28]: 9.03% | cell viability [29]: 6.61% | cell viability [30]: 6.04% | cell viability [31]: 3.26% | cell viability [32]: -0.0472% | cell viability [33]: 8.99%
